Measurements reported in patent US20230050398A1, “METHODS FOR INCREASING SHELF-LIFE OF OPHTHALMIC PHARMACEUTICAL COMPOSITIONS” (Harrow IP, LLC, priority 2021, published 2023).

What was measured:
Assay type in all cases: physicochemical
[1] = Stability of ophthalmic pharmaceutical composition of Example 1: amount of active ingredient by UHPLC; conditions: Example 1 composition; for Pass/Fail: 25° C., acceptance 90-110% of label claim (bromfenac, moxifloxacin), 90-115% (prednisolone acetate); for % Label Claim / Amount Found: stored at 25° C.
Experimental: The stability of an ophthalmic pharmaceutical composition made by the method of the present disclosure was studied and confirmed by the Compounder's International Analytical Laboratory. The data collected included the concentration of the active ingredients in the composition, the pH, and the appearance, color, and odor of the composition. The amount of active ingredient in the ophthalmic pharmaceutical composition was determined by ultra high performance liquid chromatography (UHPLC). The composition was stored at 25° C. The composition comprised the active ingredients bromfenac, moxifloxacin, and prednisolone acetate. The composition was considered stable if it contained 90-110% of the label claim of bromfenac and moxifloxacin and 90-115% of the label claim of prednisolone acetate.
A sample of the composition was provided on Jul. 31, 2020. […] 21, 2020.

[2] = Stability of comparator composition (Example 3): amount of active ingredient by UHPLC; conditions: for Pass/Fail: 25° C., acceptance 90-110% of label claim (bromfenac, moxifloxacin), 90-115% (prednisolone acetate); for % Label Claim (Potency) / Amount Found: stored at 25° C.
Experimental: The data collected included the concentration of the active ingredients in the composition. The amount of active ingredient in the composition was determined by ultra high performance liquid chromatography (UHPLC). The comparator composition was stored at 25° C. The composition comprised the active ingredients bromfenac, moxifloxacin, and prednisolone acetate.
A sample of the composition was provided on Nov.

[3] = Stability of ophthalmic pharmaceutical composition of Example 2: amount of active ingredient by UHPLC; conditions: Example 2 composition; for Pass/Fail: 25° C., acceptance 90-110% of label claim (bromfenac, moxifloxacin), 90-115% (prednisolone acetate); for % Label Claim / Amount Found: stored at 25° C.
Experimental: The stability of an ophthalmic pharmaceutical composition made by the method of the present disclosure was studied and confirmed by the Compounder's International Analytical Laboratory. The data collected included the concentration of the active ingredients in the composition, the pH, and the appearance, color, and odor of the composition. The amount of active ingredient in the ophthalmic pharmaceutical composition was determined by ultra high performance liquid chromatography (UHPLC). The composition was stored at 25° C. The composition comprised the active ingredients bromfenac, moxifloxacin, and prednisolone acetate. The composition was considered stable if it contained 90-110% of the label claim of bromfenac and moxifloxacin and 90-115% of the label claim of prednisolone acetate. pH was determined according to USP 791, incorporated by reference herein. Additionally, the container enclosure was tested at baseline according to USP 1207 and 381, incorporated by reference herein. No blue dye was observed via UV-Vis spectrophotometry.
A sample of the composition was provided on May 28, 2021. […] 7, 2021.

Compound: Nc1c(CC(=O)O)cccc1C(=O)c1ccc(Br)cc1 [Bromfenac, bromfenac]
- Pass/Fail ([1]; after 90 days): Pass
- Pass/Fail ([1]; after 120 days): Pass
- Pass/Fail ([1]; after 180 days): Pass
- Pass/Fail ([1]; after 210 days): Pass
- Pass/Fail ([1]; after 270 days): Pass
- Pass/Fail ([1]; baseline): Pass
- % Label Claim ([1]; after 90 days): 98.3%
- Amount Found ([1]; after 90 days): 0.07373%
- % Label Claim ([1]; after 120 days): 100.8%
- Amount Found ([1]; after 120 days): 0.07559%
- % Label Claim ([1]; after 180 days): 105.6%
- Amount Found ([1]; after 180 days): 0.07917%
- % Label Claim ([1]; after 210 days): 101.6%
- Amount Found ([1]; after 210 days): 0.0762%
- % Label Claim ([1]; after 270 days): 97.5%
- Amount Found ([1]; after 270 days): 0.07312%
- % Label Claim ([1]; baseline): 107.0%
- Amount Found ([1]; baseline): 0.08023%
- Pass/Fail ([2]; after 30 days): Pass
- Pass/Fail ([2]; after 60 days): Pass
- Pass/Fail ([2]; after 90 days): Fail
- Pass/Fail ([2]; after 120 days): Fail
- Pass/Fail ([2]; after 150 days): Fail
- Pass/Fail ([2]; after 180 days): Fail
- Pass/Fail ([2]; baseline): Pass
- % Label Claim (Potency) ([2]; after 30 days): 94.9%
- Amount Found ([2]; after 30 days): 0.071%
- % Label Claim (Potency) ([2]; after 60 days): 92.2%
- Amount Found ([2]; after 60 days): 0.0692%
- % Label Claim (Potency) ([2]; after 90 days): 87%
- Amount Found ([2]; after 90 days): 0.0660%
- % Label Claim (Potency) ([2]; after 120 days): 82%
- Amount Found ([2]; after 120 days): 0.0618%
- % Label Claim (Potency) ([2]; after 150 days): 84%
- Amount Found ([2]; after 150 days): 0.0627%
- % Label Claim (Potency) ([2]; after 180 days): 78%
- Amount Found ([2]; after 180 days): 0.0584%
- % Label Claim (Potency) ([2]; baseline): 99.6%
- Amount Found ([2]; baseline): 0.0747%
- Pass/Fail ([3]; after 90 days): Pass
- Pass/Fail ([3]; after 180 days): Pass
- Pass/Fail ([3]; after 270 days): Pass
- Pass/Fail ([3]; after 300 days): Pass
- Pass/Fail ([3]; after 365 days): Pass
- Pass/Fail ([3]; baseline): Pass
- % Label Claim ([3]; after 90 days): 101.9%
- Amount Found ([3]; after 90 days): 0.07646%
- % Label Claim ([3]; after 180 days): 98.6%
- Amount Found ([3]; after 180 days): 0.07398%
- % Label Claim ([3]; after 270 days): 92.5%
- Amount Found ([3]; after 270 days): 0.06939%
- % Label Claim ([3]; after 300 days): 95.5%
- Amount Found ([3]; after 300 days): 0.0716%
- % Label Claim ([3]; after 365 days): 91.1%
- Amount Found ([3]; after 365 days): 0.06834%
- % Label Claim ([3]; baseline): 100.0%
- Amount Found ([3]; baseline): 0.07499%

Compound: CC(=O)OCC(=O)[C@@]1(O)CC[C@H]2[C@@H]3CCC4=CC(=O)C=C[C@]4(C)[C@H]3[C@@H](O)C[C@@]21C [Prednisolone acetate, prednisolone acetate]
- Pass/Fail ([1]; after 90 days): Pass
- Pass/Fail ([1]; after 120 days): Pass
- Pass/Fail ([1]; after 180 days): Pass
- Pass/Fail ([1]; after 210 days): Pass
- Pass/Fail ([1]; after 270 days): Pass
- Pass/Fail ([1]; baseline): Pass
- % Label Claim ([1]; after 90 days): 99.2%
- Amount Found ([1]; after 90 days): 0.9915%
- % Label Claim ([1]; after 120 days): 103.5%
- Amount Found ([1]; after 120 days): 1.035%
- % Label Claim ([1]; after 180 days): 105.6%
- Amount Found ([1]; after 180 days): 1.056%
- % Label Claim ([1]; after 210 days): 106.5%
- Amount Found ([1]; after 210 days): 1.065%
- % Label Claim ([1]; after 270 days): 103.6%
- Amount Found ([1]; after 270 days): 1.036%
- % Label Claim ([1]; baseline): 100.0%
- Amount Found ([1]; baseline): 1.000%
- Pass/Fail ([2]; after 30 days): Pass
- Pass/Fail ([2]; after 60 days): Pass
- Pass/Fail ([2]; after 90 days): Pass
- Pass/Fail ([2]; after 120 days): Pass
- Pass/Fail ([2]; after 150 days): Pass
- Pass/Fail ([2]; after 180 days): Pass
- Pass/Fail ([2]; baseline): Pass
- % Label Claim (Potency) ([2]; after 30 days): 97.8%
- Amount Found ([2]; after 30 days): 0.978%
- % Label Claim (Potency) ([2]; after 60 days): 90.0%
- Amount Found ([2]; after 60 days): 0.9001%
- % Label Claim (Potency) ([2]; after 90 days): 99%
- Amount Found ([2]; after 90 days): 0.9885%
- % Label Claim (Potency) ([2]; after 120 days): 95%
- Amount Found ([2]; after 120 days): 0.9505%
- % Label Claim (Potency) ([2]; after 150 days): 93%
- Amount Found ([2]; after 150 days): 0.926%
- % Label Claim (Potency) ([2]; after 180 days): 91%
- Amount Found ([2]; after 180 days): 0.907%
- % Label Claim (Potency) ([2]; baseline): 98.4%
- Amount Found ([2]; baseline): 0.984%
- Pass/Fail ([3]; after 90 days): Pass
- Pass/Fail ([3]; after 180 days): Pass
- Pass/Fail ([3]; after 270 days): Pass
- Pass/Fail ([3]; after 300 days): Pass
- Pass/Fail ([3]; after 365 days): Pass
- Pass/Fail ([3]; baseline): Pass
- % Label Claim ([3]; after 90 days): 98.0%
- Amount Found ([3]; after 90 days): 0.9805%
- % Label Claim ([3]; after 180 days): 98.8%
- Amount Found ([3]; after 180 days): 0.9883%
- % Label Claim ([3]; after 270 days): 97.4%
- Amount Found ([3]; after 270 days): 0.9743%
- % Label Claim ([3]; after 300 days): 99.5%
- Amount Found ([3]; after 300 days): 0.9954%
- % Label Claim ([3]; after 365 days): 99.6%
- Amount Found ([3]; after 365 days): 0.9960%
- % Label Claim ([3]; baseline): 102.4%
- Amount Found ([3]; baseline): 1.024%
